Broadly, the IC50 is the point on the concentration scale where inhibition reaches its midpoint.

This test has as its target T1, Recombinant human renin (Homo sapiens, UniProt P00797).
T1 construct: isolate the active form (residues 67-406); made in house; host or cells: FreeStyle 293-F cells (transient expression of pcDNA3.1(+)/hREN)
T1 sequence (P00797 67-406): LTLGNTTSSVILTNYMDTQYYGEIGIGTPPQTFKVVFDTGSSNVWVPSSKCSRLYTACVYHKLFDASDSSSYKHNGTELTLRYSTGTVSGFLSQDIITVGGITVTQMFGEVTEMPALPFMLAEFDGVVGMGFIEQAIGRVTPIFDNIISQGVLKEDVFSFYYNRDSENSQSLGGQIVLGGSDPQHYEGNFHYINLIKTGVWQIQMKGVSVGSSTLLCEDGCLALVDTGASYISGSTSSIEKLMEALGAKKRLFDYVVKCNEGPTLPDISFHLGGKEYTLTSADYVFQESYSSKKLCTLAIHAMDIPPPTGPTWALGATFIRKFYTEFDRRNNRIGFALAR
Nature of the test: In vitro enzymatic activity assay of renin inhibitors (fluorogenic peptide substrate). The following applies: read-out: IC50 of Exemplified Compounds Against Renin. Type of test: biochemical. The essentials: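 Recombinant human renin (3 nM final) pre-incubated 10 min at 37 °C with compounds in pH 7.4 Hepes/EDTA/DTT/0.1 mg/mL BSA/Brij35 buffer (optionally plus 2% BSA), 5% DMSO final; fluorogenic QXL520/HiLyteFluo488 peptide substrate added.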
`COCCCn1c([C@@H]2CCCN(C(=O)C[C@H](N)Cc3ccc(-c4ccccc4)cc3)C2)nc2c(Cl)cccc21` [Compound 118, (R)-3-amino-4-(biphenyl-4-yl)-1-((R)-3-(4-chloro-1-(3-methoxypropyl)-1H-benzo[d]imidazol-2-yl)piperidin-1-yl)butan-1-one]: the IC50 was less than 100 nM.
The result for `COCCCn1c([C@@H]2CCCN(C(=O)C[C@H](N)c3cccnc3)C2)nc2ccccc21` [Compound 119, (S)-3-amino-1((R)-3-(1-(3-methoxypropyl)-1H-benzo[d]imidazol-2-yl)piperidin-1-yl)-3-(pyridin-3-yl)propan-1-one] reads 100 to 1000 nM; that for `COCCCn1c([C@@H]2CCCN(C(=O)C[C@H](N)c3cnccc3OC)C2)nc2ccccc21` [Compound 120, (S)-3-Amino-1((R)-3-(1-(3-methoxypropyl)-1H-benzo[d]imidazol-2-yl)piperidin-1-yl)-3-(4-methoxypyridin-3-yl)propan-1-one], greater than 1000 nM.
The result for `COCCCn1c([C@@H]2CCCN(C(=O)C[C@H](N)c3cccc(OC)c3)C2)nc2ccccc21` [Compound 121] reads greater than 1000 nM; that for `COCCCn1c([C@@H]2CCCN(C(=O)C[C@H](N)Cc3cccc(-c4ccccc4)c3)C2)nc2ccccc21` [Compound 122, (R)-3-amino-4-(biphenyl-3-yl)-1-((R)-3-(1-(3-methoxypropyl)-1H-benzo[d]imidazol-2-yl)piperidin-1-yl)butan-1-one], less than 100 nM; that for `COCCCn1c([C@@H]2CCCN(C(=O)C[C@H](N)Cc3ccc(-c4ccc(C(=O)OC)cc4)cc3)C2)nc2ccccc21` [Compound 123, methyl 4′-((R)-2-amino-4-((R)-3-(1-(3-methoxypropyl)-1H-benzo[d]imidazol-2-yl)piperidin-1-yl)-4-oxobutyl)biphenyl-4-carboxylate], less than 100 nM.
The figure for `COCCCn1c([C@@H]2CCCN(C(=O)C[C@H](N)Cc3ccc(-c4ccccc4)cc3)C2)nc2ccccc21` [Compound 124, (R)-3-amino-4-(biphenyl-4-yl)-1-((R)-3-(1-(3-methoxypropyl)-1H-benzo[d]imidazol-2-yl)piperidin-1-yl)butan-1-one] is less than 100 nM.
Turning to `COCCCn1c([C@@H]2CCCN(C(=O)C[C@H](N)Cc3ccc(-c4cccnc4)cc3)C2)nc2ccccc21` [Compound 125, (R)-3-amino-1-((R)-3-(1-(3-methoxypropyl)-1H-benzo[d]imidazol-2-yl)piperidin-1-yl)-4-(4-(pyridin-3-yl)phenyl)butan-1-one], the IC50 is less than 100 nM.
The result for `COCCCn1c([C@@H]2CCCN(C(=O)C[C@H](N)Cc3ccc(-c4ccncc4)cc3)C2)nc2ccccc21` [Compound 126, (R)-3-amino-1-((R)-3-(1-(3-methoxypropyl)-1H-benzo[d]imidazol-2-yl)piperidin-1-yl)-4-(4-(pyridin-4-yl)phenyl)butan-1-one] reads less than 100 nM; that for `COCCCn1c([C@@H]2CCCN(C(=O)C[C@H](N)Cc3ccc(-c4ccc(C(=O)N5CCOCC5)cc4)cc3)C2)nc2ccccc21` [Compound 127, (R)-3-amino-1-((R)-3-(1-(3-methoxypropyl)-1H-benzo[d]imidazol-2-yl)piperidin-1-yl)-4-(4′-(morpholine-4-carbonyl)biphenyl-4-yl)butan-1-one], less than 100 nM.
With `COCCCn1c([C@@H]2CCCN(C(=O)C[C@H](N)Cc3ccc(-c4ccc(N5CCOCC5)cc4)cc3)C2)nc2ccccc21` [Compound 128, (R)-3-amino-1-((R)-3-(1-(3-methoxypropyl)-1H-benzo[d]imidazol-2-yl)piperidin-1-yl)-4-(4′-morpholinobiphenyl-4-yl)butan-1-one], the IC50 was less than 100 nM.
Regarding `COCCCn1c([C@@H]2CCCN(C(=O)C[C@H](N)Cc3ccc(-c4ccc(NC(C)=O)cc4)cc3)C2)nc2ccccc21` [Compound 129, N-(4′-((R)-2-amino-4-((R)-3-(1-(3-methoxypropyl)-1H-benzo[d]imidazol-2-yl)piperidin-1-yl)-4-oxobutyl)biphenyl-4-yl)acetamide], the IC50 is less than 100 nM.
The figure for `COCCCn1c([C@@H]2CCCN(C(=O)C[C@H](N)Cc3ccc(-c4ccccc4COC)cc3)C2)nc2ccccc21` [Compound 130, (R)-3-amino-4-(2′-(methoxymethyl)biphenyl-4-yl)-1-((R)-3-(1-(3-methoxypropyl)-1H-benzo[d]imidazol-2-yl)piperidin-1-yl)butan-1-one] is less than 100 nM; for `COCCCn1c([C@@H]2CCCN(C(=O)C[C@H](N)Cc3ccc(-c4ccncc4Cl)cc3)C2)nc2ccccc21` [Compound 131, (R)-3-amino-4-(4-(3-chloropyridin-4-yl)phenyl)-1-((R)-3-(1-(3-methoxypropyl)-1H-benzo[d]imidazol-2-yl)piperidin-1-yl)butan-1-one] it is less than 100 nM; for `COCCCn1c([C@@H]2CCCN(C(=O)C[C@H](N)Cc3ccc(-c4ccc(OC)nc4OC)cc3)C2)nc2ccccc21` [Compound 132, (R)-3-amino-4-(4-(2,6-dimethoxypyridin-3-yl)phenyl)-1-((R)-3-(1-(3-methoxypropyl)-1H-benzo[d]imidazol-2-yl)piperidin-1-yl)butan-1-one] it is less than 100 nM.
As to `COCCCn1c([C@@H]2CCCN(C(=O)C[C@H](N)Cc3ccc(-c4ccnc(Cl)c4)cc3)C2)nc2ccccc21` [Compound 133, (R)-3-amino-4-(4-(2-chloropyridin-4-yl)phenyl)-1-((R)-3-(1-(3-methoxypropyl)-1H-benzo[d]imidazol-2-yl)piperidin-1-yl)butan-1-one], the IC50 is less than 100 nM.
The figure for `COCCCn1c([C@@H]2CCCN(C(=O)C[C@H](N)Cc3ccc(-c4ccc(C(=O)NC5CC5)cc4)cc3)C2)nc2ccccc21` [Compound 134, 4′-((R)-2-amino-4-((R)-3-(1-(3-methoxypropyl)-1H-benzo[d]imidazol-2-yl)piperidin-1-yl)-4-oxobutyl)-N-cyclopropylbiphenyl-4-carboxamide] is less than 100 nM; for `COCCCn1c([C@@H]2CCCN(C(=O)C[C@H](N)Cc3ccc(-c4ccc(N5CCOCC5)nc4)cc3)C2)nc2ccccc21` [Compound 135, (R)-3-amino-1-((R)-3-(1-(3-methoxypropyl)-1H-benzo[d]imidazol-2-yl)piperidin-1-yl)-4-(4-(6-morpholinopyridin-3-yl)phenyl)butan-1-one] it is less than 100 nM.
Take `COCCCn1c([C@@H]2CCCN(C(=O)C[C@H](N)Cc3ccc(-c4ccc(N)nc4)cc3)C2)nc2ccccc21` [Compound 136, (R)-3-amino-4-(4-(6-aminopyridin-3-yl)phenyl)-1-((R)-3-(1-(3-methoxypropyl)-1H-benzo[d]imidazol-2-yl)piperidin-1-yl)butan-1-one]: the IC50 was less than 100 nM.
For `COCCCn1c([C@@H]2CCCN(C(=O)C[C@H](N)Cc3ccc(-c4c(C)n[nH]c4C)cc3)C2)nc2ccccc21` [Compound 137, (R)-3-amino-4-(4-(3,5-dimethyl-1H-pyrazol-4-yl)phenyl)-1-((R)-3-(1-(3-methoxypropyl)-1H-benzo[d]imidazol-2-yl)piperidin-1-yl)butan-1-one], the 50% inhibitory concentration (IC50) was less than 100 nM.
For `CCOc1ccc(-c2ccc(C[C@@H](N)CC(=O)N3CCC[C@@H](c4nc5ccccc5n4CCCOC)C3)cc2)cn1` [Compound 138, (R)-3-amino-4-(4-(6-ethoxypyridin-3-yl)phenyl)-1-((R)-3-(1-(3-methoxypropyl)-1H-benzo[d]imidazol-2-yl)piperidin-1-yl)butan-1-one], the IC50 was less than 100 nM.
Turning to `COCCCn1c([C@@H]2CCCN(C(=O)C[C@H](N)Cc3ccc(-c4ccc5nccn5c4)cc3)C2)nc2ccccc21` [Compound 139, (R)-3-amino-4-(4-(imidazo[1,2-a]pyridin-6-yl)phenyl)-1-((R)-3-(1-(3-methoxypropyl)-1H-benzo[d]imidazol-2-yl)piperidin-1-yl)butan-1-one], the IC50 was less than 100 nM.
On to `COCCCn1c([C@@H]2CCCN(C(=O)C[C@H](N)Cc3ccc(-c4ccc5nonc5c4)cc3)C2)nc2ccccc21` [Compound 140, (R)-3-amino-4-(4-(benzo[c][1,2,5]oxadiazol-5-yl)phenyl)-1-((R)-3-(1-(3-metboxypropyl)-1H-benzo[d]imidazol-2-yl)piperidin-1-yl)butan-1-one], for which the IC50 is less than 100 nM.
As to `COCCCn1c([C@@H]2CCCN(C(=O)C[C@H](N)Cc3ccc(-c4ccn[nH]4)cc3)C2)nc2ccccc21` [Compound 141, (R)-4-(4-(1H-pyrazol-5-yl)phenyl)-3-amino-1-((R)-3-(1-(3-methoxypropyl)-1H-benzo[d]imidazol-2-yl)piperidin-1-yl)butan-1-one], the IC50 fell in the range of 100 to 1000 nM.
The figure for `COCCCn1c([C@@H]2CCCN(C(=O)C[C@H](N)Cc3ccc(-c4ccc(OC(C)C)nc4)cc3)C2)nc2ccccc21` [Compound 142, (R)-3-amino-4-(4-(6-isopropoxypyridin-3-yl)phenyl)-1-((R)-3-(1-(3-methoxypropyl)-1H-benzo[d]imidazol-2-yl)piperidin-1-yl)butan-1-one] is less than 100 nM; for `COCCCn1c([C@@H]2CCCN(C(=O)C[C@H](N)Cc3ccc(-c4ccc(OCC5CC5)nc4)cc3)C2)nc2ccccc21` [Compound 143, (R)-3-amino-4-(4-(6-(cyclopropylmethoxy)pyridin-3-yl)phenyl)-1-((R)-3-(1-(3-methoxypropyl)-1H-benzo[d]imidazol-2-yl)piperidin-1-yl)butan-1-one] it is less than 100 nM.

Values taken from patent publication US8138168B1 (Takeda Pharmaceutical Company Limited, priority 2007, dated 2012).
